{
  "source": "paper PMC10598831",
  "about": "(JACS Au, 2023)",
  "key": {"GDI2 [1]": {"target": "T1, GDI2 (Homo sapiens, UniProt P50395)", "T1 sequence (P50395 1-445)": "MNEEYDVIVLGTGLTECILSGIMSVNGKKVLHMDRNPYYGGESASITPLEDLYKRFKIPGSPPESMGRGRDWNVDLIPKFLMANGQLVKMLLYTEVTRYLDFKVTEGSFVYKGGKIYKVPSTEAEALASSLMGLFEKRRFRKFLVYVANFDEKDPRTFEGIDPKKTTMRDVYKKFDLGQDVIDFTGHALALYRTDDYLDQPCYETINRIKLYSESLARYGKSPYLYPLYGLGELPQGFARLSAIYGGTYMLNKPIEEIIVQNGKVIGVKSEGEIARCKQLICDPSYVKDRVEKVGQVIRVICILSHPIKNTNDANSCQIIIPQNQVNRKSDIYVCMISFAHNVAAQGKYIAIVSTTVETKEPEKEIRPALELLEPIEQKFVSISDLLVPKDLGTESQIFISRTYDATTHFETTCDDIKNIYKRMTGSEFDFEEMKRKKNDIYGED", "assay": "Biolayer interferometry", "type": "binding"}, "GDI2 [2]": {"target": "T1, GDI2", "assay": "GDI2 degradation by Western blot, AsPC-1 cells", "type": "cell-based"}, "GDI1": {"target": "T2, GDI1 (Homo sapiens, UniProt P31150)", "T2 sequence (P31150 1-447)": "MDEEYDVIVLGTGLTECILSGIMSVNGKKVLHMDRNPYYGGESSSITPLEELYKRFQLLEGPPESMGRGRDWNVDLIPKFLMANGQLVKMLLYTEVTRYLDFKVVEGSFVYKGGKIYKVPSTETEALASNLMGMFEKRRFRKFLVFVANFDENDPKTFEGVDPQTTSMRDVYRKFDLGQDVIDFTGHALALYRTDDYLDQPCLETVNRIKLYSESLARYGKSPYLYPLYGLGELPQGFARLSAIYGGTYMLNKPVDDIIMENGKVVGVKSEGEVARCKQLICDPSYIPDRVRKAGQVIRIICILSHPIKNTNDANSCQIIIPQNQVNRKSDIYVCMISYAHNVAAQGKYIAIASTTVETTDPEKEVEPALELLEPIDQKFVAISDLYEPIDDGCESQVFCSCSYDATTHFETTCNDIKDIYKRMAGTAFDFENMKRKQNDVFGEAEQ", "assay": "GDI1 level by Western blot, AsPC-1 cells", "type": "cell-based", "conditions": "up to 10 μM"}, "AsPC-1 xenograft": {"test_system": "AsPC-1 xenograft", "assay": "AsPC-1 pancreatic carcinoma xenograft model", "type": "in vivo, mouse"}, "PDAC PDX tumors": {"test_system": "PDAC PDX tumors", "assay": "Pancreatic adenocarcinoma PDX model", "type": "in vivo, mouse"}},
  "data": [
    {"compound": "Cc1cc(C)cc(COc2cc3c(cc2OCc2cc(C)cc(C)c2)[C@H]2C[C@](O)(Cc4cn(CCOCCOCCOCCNC(=O)[C@@H](CC(C)C)NC(=O)[C@@H](O)[C@H](N)Cc5ccccc5)nn4)C[C@H](C)N2CC3)c1", "note": "[Compound 21]", "values": [
      {"measurement": "Kd", "setting": "GDI2 [1]", "result": 23.9, "unit": "µM"},
      {"measurement": "Dmax", "setting": "GDI2 [2]; ASPC1, read-out: GDI2 Dmax", "result": 84.2, "unit": "%"},
      {"measurement": "GDI2 depleted", "setting": "GDI2 [2]; AsPC-1 cells, after 9 h of treatment", "result": "> 70", "unit": "%"},
      {"measurement": "DC50", "setting": "GDI2 [2]; read-out: GDI2 DC50, AsPC-1 cells, 0.63–10 μM, 24 h, n = 3", "result": 1.48, "unit": "µM"},
      {"measurement": "Effect on GDI1 protein level", "setting": "GDI1", "result": "without affecting the GDI1 protein level"},
      {"measurement": "GDI2 not restored in tumor tissue", "setting": "AsPC-1 xenograft; 15 mg/kg ip., 72 h post final injection, Western blot", "result": "more than 90%"},
      {"measurement": "Toxicity (body weight, histopathology of major organs)", "setting": "AsPC-1 xenograft; 18 days of treatment", "result": "No significant signs of toxicity"},
      {"measurement": "Tumor growth vs vehicle", "setting": "AsPC-1 xenograft; (+)-37 25 or 40 mg/kg ip., 21 15 mg/kg ip., every 3 days, 18 days", "result": "significantly attenuated tumor growth"},
      {"measurement": "Toxicity", "setting": "PDAC PDX tumors; 18 days of treatment", "result": "without significant toxicity"},
      {"measurement": "PDAC tumor growth", "setting": "PDAC PDX tumors; (+)-37 40 mg/kg ip., 21 15 mg/kg ip., every 3 days, 18 days", "result": "successfully suppressed PDAC tumor growth"}
    ]}
  ]
}
